System: relapsed or refractory, rituximab-naive or -sensitive follicular B-cell NHL
Test: Overall survival (OS), Vc-R vs rituximab study, by biomarker
Format: in vivo, human
Design: OS Median: unit not given here
Excerpt: Non-Hodgkin lymphoma (NHL) encompasses several unique malignant lymphoid disease entities that vary in clinical behavior, morphologic appearance, immunologic, and molecular phenotype. […] A randomized, open-label, active-controlled, multicenter, multinational, prospective study to compare the efficacy and safety of the combination of bortezomib and rituximab (Vc-R) to single-agent rituximab in subjects who have relapsed or refractory, rituximab-naive or -sensitive follicular B-cell NHL was performed.
Subjects were centrally randomized to Treatment Groups A (Vc-R) or B (rituximab) in a 1:1 ratio taking into account the following stratification factors: • Follicular Lymphoma International Prognostic Index (FLIPI) score (low [0 or 1 factor], intermediate [2 factors], high [≧3 factors]); • Prior rituximab therapy (yes, no); • Time since last dose of anti-lymphoma therapy (≦1 year, >1 year); • Region (United States/Canada, European Union, Rest of World).
The following clinical endpoints were included in the analysis within each treatment group and an overall comparison was made with the biomarker-related endpoints: Progression-free survival, defined as the interval between the date of randomization and the date of progressive disease (PD) or death, whichever is first reported in the ITT population; overall survival; overall response rate (complete response [CR]+CR unconfirmed [CRu]+partial response [PR]); overall CR rate (CR+CRu); duration of response; time to next anti-lymphoma therapy; and treatment free interval.
Overall Survival was measured from the date of randomization to the date of the subject's death. If the subject was alive or the vital status was unknown, it was censored at the date that the subject was last known to be alive. Similar to PFS and TTP, the Cox proportional hazard model was used to evaluate the association between biomarker endpoints and OS. Kaplan-Meier survival curves were presented. Analyses were done for the population overall and by treatment group, and each of these analyses was stratified by the covariates used for PFS.

[1] = 20S % POSITIVE CYTOPLASMIC SIGNAL: 95-100, 2 Prior Lines of Therapy
[2] = 20S % POSITIVE CYTOPLASMIC SIGNAL: 95-100, Ann Arbor Stage IV
[3] = BCL2/P59L: MD, Ann Arbor Stage IV
[4] = BCL2/P59L: MD, High FLIPI Score
[5] = BCL2/P59L: MD, High Tumor Burden
[6] = BCL2/P59L: MD, No Prior Rituximab Therapy
[7] = CD68 OVERALL POSITIVE: 26-50, 2 Prior Lines of Therapy
[8] = CD68 POSITIVE PERIFOLLICULAR: 26-50, 2 Prior Lines of Therapy
[9] = NOTCH/P2513L: MD, >65 years old
[10] = PSMB5/R24C: C/T, Ann Arbor Stage IV
[11] = PSMB5/R24C: C/T, Intermediate FLIPI Score

## rituximab
20S % POSITIVE CYTOPLASMIC SIGNAL: 0-20, 2 Prior Lines of Therapy
  OS Evt/N: 1/10
20S % POSITIVE CYTOPLASMIC SIGNAL: 0-20, Ann Arbor Stage IV
  OS Evt/N: 1/15
[1]
  OS Evt/N: 14/35
  OS Median: 1205
[2]
  OS Evt/N: 25/56
  OS Median: 1205
20S INTENSITY CYTOPLASMIC SIGNAL >=3+ + P65 % POSITIVE CYTOPLASMIC SIGNAL <=90%, Selected (biomarker positive)
  Median OS (Vc − R vs R): 717 days
20S INTENSITY CYTOPLASMIC SIGNAL: ≦2+, Intermediate FLIPI Score
  OS Evt/N: 2/48
20S INTENSITY CYTOPLASMIC SIGNAL: ≧3+, Male
  OS Evt/N: 10/27
AGEGRP >65 + CD68 POSITIVE FOLLICULAR >50, Selected (biomarker positive)
  Median OS (Vc − R vs R): 971 days
[3]
  OS Evt/N: 5/5
  OS Median: 174
BCL2/P59L: MD, Female
  OS Evt/N: 6/8
  OS Median: 536
[4]
  OS Evt/N: 6/6
  OS Median: 282
[5]
  OS Evt/N: 5/6
  OS Median: 282
[6]
  OS Evt/N: 5/5
  OS Median: 174
BCL2/P59L: MD, Rest of World
  OS Evt/N: 4/5
  OS Median: 174
BCL2/R106H: MD, Male
  OS Evt/N: 8/10
  OS Median: 318
[7]
  OS Evt/N: 13/26
  OS Median: 1205
CD68 OVERALL POSITIVE: 26-50, No High Tumor Burden
  OS Evt/N: 14/54
CD68 OVERALL POSITIVE: 51-75, Ann Arbor Stage III
  OS Evt/N: 2/21
CD68 POSITIVE FOLLICULAR: 0-25, No Prior Rituximab Therapy
  OS Evt/N: 11/36
CD68 POSITIVE FOLLICULAR: 0-25, ≦65 years old
  OS Evt/N: 14/46
[8]
  OS Evt/N: 7/16
  OS Median: 1205
CD68 POSITIVE PERIFOLLICULAR: 26-50, Male
  OS Evt/N: 11/30
CD68 POSITIVE PERIFOLLICULAR: 26-50, No High Tumor Burden
  OS Evt/N: 10/41
FLIPI High + CD68 POSITIVE FOLLICULAR 0-50, Selected
  Median OS (Vc − R vs R): 1263 days
FLIPI High + P27 % NUCLEI POSITIVE 0-70, Selected
  Median OS (Vc − R vs R): 1111 days
FLIPI High + P27 SIGNAL INTENSITY >=2+, Selected
  Median OS (Vc − R vs R): 1263 days
[9]
  OS Evt/N: 8/13
  OS Median: 795
NOTCH/P2513L: MD, No High Tumor Burden
  OS Evt/N: 7/26
NOTCH/Q2460X: MD, Male
  OS Evt/N: 3/3
  OS Median: 595
NOTCH/X28DEL: MND, 2 Prior Lines of Therapy
  OS Evt/N: 20/56
NOTCH/X28DEL: MND, Male
  OS Evt/N: 26/75
P27 % NUCLEI POSITIVE: 0-20, No High Tumor Burden
  OS Evt/N: 3/29
P27 % NUCLEI POSITIVE: 60-70, Male
  OS Evt/N: 4/12
P65 % POSITIVE CYTOPLASMIC SIGNAL: >90%, 2 Prior Lines of Therapy
  OS Evt/N: 19/52
P65 INTENSITY CYTOPLASMIC SIGNAL: ≦1+, Intermediate FLIPI Score
  OS Evt/N: 1/17
P65 INTENSITY CYTOPLASMIC SIGNAL: ≧2+, 2 Prior Lines of Therapy
  OS Evt/N: 19/55
[10]
  OS Evt/N: 9/15
  OS Median: 717
[11]
  OS Evt/N: 4/10
  OS Median: 971
PSMB9/R60H: A/A, 3 Prior Lines of Therapy
  OS Evt/N: 1/6
SEX MALE + 20S % NUCLEAR STAINING 30-90, Selected
  Median OS (Vc-R vs R): 1263 days
Selected: FLIPI High and P65 % POSITIVE CYTOPLASMIC SIGNAL >90%
  Median OS (Vc-R vs R): 1263 days
